# What was measured:
# Test in all cases: FoID dehydrogenase (DH) enzyme assay
# Type in all cases: biochemical, E. coli
# ecFoID G8S = biological target: T1, ecFoID G8S (Escherichia coli, UniProt P24186, G8S)
# T1 construct: made in house; host or cells: E. coli BL21 (DE3)
# Method: (§1) (6R,S)-5,10-Methylene-5,6,7,8-tetrahydrofolic acid ((6R,S)-5,10-CH2-THF), calcium salt and (6R,S)-5,10-Methenyl-5,6,7,8-tetrahydrofolic acid ((6R,S)-5,10-CH=THF) chloride were purchased from Schircks Laboratories (Bauma, Switzerland) and were used as substrates for FoID dehydrogenase and cyclohydrolase enzyme assays, respectively. Only the R-isomer, which accounts for 50% of (6R,S)-5,10-CH2-THF and (6R,S)-5,10-CH=THF, respectively, is used by the enzyme. (6R,S)-5,10-CH2-THF was dissolved in N2-spargeled basic buffer (50 mM Tris-HCl (pH 8.0), 100 mM β-mercaptoethanol) as described by Sah and Varshney, 2015a (6R,S)-5,10-CH=THF was first dissolved in DMSO as a 100 mM stock solution.
# (§2) Because FoID is a bifunctional enzyme, dehydrogenase and cyclohydrolase activities were determined for FoID enzyme kinetics, respectively. The dehydrogenase activity of FoID was assayed for its substrate 5,10-CH2-THF and cofactor NADP+ (in the case of MTHFD2, NAD+ was used as cofactor) based on monitoring the formation of 5,10-CH=THF while the cyclohydrolase activity of FoID was determined for its substrate 5,10-CH=THF by monitoring the hydrolysis of 5,10-CH2-THF. The enzyme kinetics for the dehydrogenase activity of all FoIDs except hsMTHFD1_DC were determined at 30° C. in 50 mM Tris-HCl (pH 7.5), 30 mM β-mercaptoethanol. The hsMTHFD1_DC dehydrogenase activity was measured in 25 mM MOPS (pH 7.3), 30 mM β-mercaptoethanol at 30° C. To measure the enzyme kinetics constants for 5,10-CH2-THF, for example in the case of ecFoID, the NADP concentration was fixed at 1 mM and the concentration of 5,10-CH2-THF varied from 5 μM to 1,500 μM (R-isomer). Similarly, to measure the kinetic constants of ecFoID for NADP+, the concentration of 5,10-CH2-THF (R-isomer) was fixed at 1 mM and the concentration of NADP+ varied from 10 μM to 1,500 μM. For different FoIDs, the varied concentration range of substrates could be different. The 50 μL reactions of dehydrogenase assays were initiated by adding appropriate amounts enzyme (4 nM ecFoID, 4 nM spFoID, 15 nM hsMTHFD1_DC, 20 nM hsMTHFD2, 20 nM G8S, 20 nM Q98H, 10 nM K54N, 200 nM ΔK54R55 in the corresponding assays) and terminated with 50 μL 1 M HCl after 2 min incubation at 30° C. To monitor the formation of 5,10-CH=THF, the absorbance of the reaction mixture was monitored at 350 nm in micro UV cuvettes (BRAND, Essex, Connecticut, USA). The concentration of 5,10-CH=THF produced in the reaction was determined using an extinction co-efficient of 0.0249 μM-1 cm-1. Cyclohydrolase activity for each FoID was assayed in the same buffer as dehydrogenase activity at 30° C. but for 30 s. The concentration of FoID used in each assay was 5 nM of ecFoID, spFoID and hsMTHFD1_DC, respectively, and 2 nM of hsMTHFD2. The consumption of 5,10-CH=THF was measured by recording the absorbance of the reactions at 355 nm using the TECAN Infinite 200 PRO equipped with a monochromator. To measure the enzyme kinetic constants, different concentrations of 5,10-CH=THF (varied from […]) were used in […] reaction mixtures. The inhibition constants (Ki) of carolacton on FoID were determined by measuring the apparent Km values when adding certain amounts of carolacton to the enzyme reactions. For ecFoID, 10 nM carolacton was added in the dehydrogenase assay and 50 nM carolacton was used in the cyclohydrolase assay. For spFoID, 25 nM carolacton was added in both dehydrogenase assay and cyclohydrolase assay. For hsMTHFD1_DC, 30 nM carolacton was added in the dehydrogenase assay and 10 nM in the cyclohydrolase assay. […] To compare the inhibition effects of carolacton between the different FoIDs, the half maximal inhibitory concentration (IC50) of carolacton on the same amount of enzyme was determined for FoIDs involved in this study. The enzyme concentration used to determine dehydrogenase activity IC50 was 10 nM, and the enzyme used for cyclohydrolase IC50 measurements was 5 nM. All enzyme kinetics measurements were performed as independent triplicates. […]
# ecFoID K54N = biological target: T2, ecFoID K54N (Escherichia coli, UniProt P24186, K54N)
# T2 construct: made in house; host or cells: E. coli BL21 (DE3)
# Method: as §1, §2
# ecFoID ΔK54R55 = biological target: T3, ecFoID ΔK54R55 (Escherichia coli, UniProt P24186, DEL54-55)
# T3 construct: made in house; host or cells: E. coli BL21 (DE3)
# Method: as §1, §2
# ecFoID Q98H = biological target: T4, ecFoID Q98H (Escherichia coli, UniProt P24186, Q98H)
# T4 construct: made in house; host or cells: E. coli BL21 (DE3)
# Method: as §1, §2
smiles,measurement,setting,value
"CO[C@H](CC(=O)O)[C@@H](C)C(=O)[C@H](C)/C=C(\C)[C@H]1OC(=O)[C@H](O)[C@H](O)/C=C/[C@H](C)CCC[C@@H]1C [Carolacton, carolacton]",IC50,ecFoID G8S,86.5 nM
same,sensitivity of residual DH activity to carolacton,ecFoID K54N,completely insensitive
same,sensitivity of residual DH activity to carolacton,ecFoID ΔK54R55,completely insensitive
same,IC50,ecFoID Q98H,313 nM
